Data set [1] has as its system CL1-5-F4 cells. Kind of data set: Migration assay (culture inserts). In kind it is cell-based, human. Particulars: CL1-5-F4 cells transfected 48 hours, vs scramble (NC). How it is done:
CL1-5-F4 and Hop-62 cells were transfected with scramble (NC) of miR-135b-specific antagomir (Antago-135b) for 48 hours and the subjected to migration assays (FIG. 2d) and invasion assays (FIG. 2e) as described above. *P<0.05;**P<0.005 by Student's t-test.
For the migration assay, culture inserts (Ibidi, Munich, Germany) were inserted into 60-mm dishes. Next, the cell suspensions were seeded in each culture insert well at a concentration of 2.5×10^4 (CL1-0) or 3×10^4 (CL1-5-F4 and UACC-257) cells/mL. The culture inserts were removed to leave a gap of approximately 500 μm.

Data set [2] concerns CL1-5-F4 cells. Kind of data set: Soft agar anchorage-independent growth assay. In kind it is cell-based, human. Particulars: CL1-5-F4 cells transfected 48 hours, vs NC. How it is done: CL1-5-F4 and Hop-62 cells were transfected with the negative control (NC) or the Anatago-135b for 48 hours and subjected to soft agar assays. Error bars indicate mean±s.d.,*P<0.05 by Student's t-test.

The test system of data set [3] is H441 human lung adenocarcinoma cells. Kind of data set: Subcutaneous xenograft tumor growth. In kind it is in vivo, nude mice. How it is done:
Nude mice were subcutaneously injected with 5×10^5 H441 cells. Scramble antagomir (NC) or miR-135b Antagomir (antago-135b) was administered via tail vein injection 2 days after implantation. On day 14 after cancer cell implantation, tumor volume measurements began and were performed every 4 days (n=9). Mean±s.e.m. is shown,*P<0.05 by Student's t-test.
(§1) Animals were housed in a specific-pathgen-free environment in the animal facility of the Institute of Biomedical Sciences, Academia Sinica. All experimental procedures were in compliance with the Academia Sinica IACUC and Council of Agriculture Guidebook for the Care and Use of Laboratory Animals. For intravenous injections of the tumor cells, 1×10^6 cells were suspended in 0.1 mL of phosphate-buffered saline (PBS) and injected into lateral tail vein of SCID mice (10 mice per group). At 8 weeks after injection, all mice were killed, and lung surface tumor foci were counted. For the subcutaneous tumor assay, 1×10^6 CL1-0 cells or 2×10^5 H441 cells were subcutaneously injected in 0.1 mL of PBS into male nude mice (n=8 per group) and allowed to grow for 35 days to reach a volume of 50-200 mm^3 Control antagomir (Scramble) or anti-miR-135b antagomir (antago-135) was intravenously injected at a concentration of 10 μM in 0.1 mL of PBS 4 days after the cells were implanted. An example of a miR-135b antagomir is 5′mU(*)mC(*)mAmCmAmUmAmG-mGmAmAmUmGmAmAmAmAmGmCmC(*)mA(*)mU(*)mA(*)(3′-Ch1)3′ (SEQ ID NO:8). The mN indicates 2′-O-methyl base;* indicates phosphorothioate linkage; Ch1 indicates cholesterol.

Data set [4] has as its system CL1-5-F4 cells. Kind of data set: Late-stage metastasis model, intravenous injection of tumor cells. In kind it is in vivo, mice. The conditions noted are these: 3 months after i.v. cell injection, tail vein treatments, P=0.018.
From the text: CL1-5 cells with scramble antagomir (NC) or miR-135 antagomir (Antago-135b) were intravenously injected to assess the effect of antagomir on late-stage metastasis (n=9). Representative average of visible metastatic lung nodules and H&E staining (right). Data are expressed as the mean±s.e.m. *P<0.05 by Student's t-test.
as §1, with “At 8 weeks after injection, all mice were killed, and lung surface tumor foci were counted.” left out, “An example of a miR-135b antagomir is 5′mU(*)mC(*)mAmCmAmUmAmG-mGmAmAmUmGmAmAmAmAmGmCmC(*)mA(*)mU(*)mA(*)(3′-Ch1)3′ (SEQ ID NO:8). The mN indicates 2′-O-methyl base;* indicates phosphorothioate linkage; Ch1 indicates cholesterol.” left out
The impact of the antagomir during the late stages in metastasis was determined, such as extravasation and colonization. […]

The subject of a further data set is UACC-257 cells. Kind of data set: Western blot of endogenous LZTS1. The class given is cell-based. The conditions noted are these: 100 nM, 48 hours. The protocol:
CL1-5-F4 and UACC-257 cells were administrated with 100 nM of negative control (NC) or antago-135b for 48 hours. Total cell lysates were harvested for western blot analysis.

The subject of data set [5] is pGL3-3′-UTRs of Hippo pathway genes. Kind of data set: Luciferase reporter assay, Hippo pathway 3'-UTRs. The class given is cell-based. The conditions noted are these: CL1-0 cells co-transfected with miR-135b and pGL3-3′-UTRs, 60 hours. The protocol: CL1-0 cells co-transfected with miR-135b and pGL3-3′-UTRs with scramble (NC) or Antago-135b for 60 hours. Luciferase activity was assayed and is presented a described in FIG. 6a. Mean±s.d. is shown, *P<0.05; **P<0.005 by Student's t-test.
One day before transfection, CL1-0 cells were seeded at a concentration of 2.5×10^4 per well. Next, the pClneo vector or miR-135b plasmid was co-transfected with the pGL3-target gene-3′UTR. The Renilla lunciferase plasmid (phRL-TK, Promega, Madison, Wis.) was co-transfected as transfection control. Cells were lysed 36 hours after transfection, and luciferase activity was measured using a Dual-Luciferase system (Promega, Madison, Wis.) according to the manufacture's protocol.

Data set [6] has as its system CL1-5-F4 cells. Kind of data set: Western blot of Hippo pathway proteins. The class given is cell-based, human. The conditions noted are these: 72 hours. The protocol:
Western bolt analysis of the Hippo pathway proteins in CL1-5-F4 and CL141 cells incubated with Scramble (NC) of Antago-135b for 72 hours. Quantitative RT-PCR was used to assay miR-135b knockdown activity.
A general note: In western blotting, separated proteins are transferred to a membrane and probed.

Where [7] appears, read: antagomir systemically injected 4 days after cancer cell implantation.

The text below walks through data of patent publication US20150141485A1, “PROGNOSIS AND TREATMENT OF LUNG CANCER USING miRNA-135b” (NATIONAL CHENG KUNG UNIVERSITY, priority 2013, published 2015).

Oligonucleotides are written 5' to 3', each unit as a sugar letter and its base; * is a phosphorothioate linkage, no mark a phosphodiester; rarer units and linkages stand in square brackets, end groups in braces. Plain capitals give the bases only. {Chol} = cholesterol; m = 2'-O-methyl

“5′mU(*)mC(*)mAmCmAmUmAmG-mGmAmAmUmGmAmAmAmAmGmCmC(*)mA(*)mU(*)mA(*)(3′-Ch1)3′ (SEQ ID NO:8) (mU*mC*mAmCmAmUmAmGmGmAmAmUmGmAmAmAmAmGmCmC*mA*mU*mA*{Chol}) [miR-135b antagomir]”: the migratory ability entry with CL1-5-F4 cells [1] is on record as “inhibited these changes”. Further, in the data set on CL1-5-F4 cells [2], the “number of cell colonies (soft agar)” value is on record as “decreased”. Further, the “growth of H441 cells” value in data set [3] (antagomir administered before xenograft implantation) is given as “inhibited”. Also, in data set [3] (setting [7]), the xenograft tumor incidence result is recorded as “significantly reduced” and the xenograft tumor volume result is on record as “significantly reduced”. Moreover, the “metastatic lung nodules vs control group” value in the data set on CL1-5-F4 cells [4] was “eight-fold fewer”. In addition, the LZTS1 expression entry in the data set on UACC-257 cells is listed as “significantly increased”. Moreover, the miR-135b-induced reporter activity entry in data set [5] was “decrease”. In the data set on CL1-5-F4 cells [6], the “LATS2, β-TrCP and NDR2 expressions” value was “induced”; the TAZ protein expression result is listed as “reduced”.
